From US20210380606A1, “5-AZAINDAZOLE DERIVATIVES AS ADENOSINE RECEPTOR ANTAGONISTS” (Merck Patent GmbH, priority 2018, published 2021)
pIC50: −log10 of the molar value. Read-outs that look alike come from different tables or passages of the source. Values belong to the compound of their own block, whether it stands above or below them.

Experiments:
[1] = target: T1, human A2A receptors (Homo sapiens, UniProt P29274); experiment: Functional human A2A receptor activity, recombinant HEK293 cells, cAMP (HTRF); assay type: cell-based; conditions: read-out: A2A (Category)
T1 construct: expressed in transfected cells; host or cells: HEK293
Method in brief: (§1)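 cAMP accumulation, determined by HTRF after a 15 min incubation, served as the functional measure of receptor activity.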

[2] = target: T2, human A2B receptors (Homo sapiens, UniProt P29275); experiment: Functional human A2B receptor activity, recombinant HEK293 cells, cAMP (HTRF); assay type: cell-based; conditions: read-out: A2B (Category)
T2 construct: expressed in transfected cells; host or cells: HEK293
T2 sequence (P29275 1-332): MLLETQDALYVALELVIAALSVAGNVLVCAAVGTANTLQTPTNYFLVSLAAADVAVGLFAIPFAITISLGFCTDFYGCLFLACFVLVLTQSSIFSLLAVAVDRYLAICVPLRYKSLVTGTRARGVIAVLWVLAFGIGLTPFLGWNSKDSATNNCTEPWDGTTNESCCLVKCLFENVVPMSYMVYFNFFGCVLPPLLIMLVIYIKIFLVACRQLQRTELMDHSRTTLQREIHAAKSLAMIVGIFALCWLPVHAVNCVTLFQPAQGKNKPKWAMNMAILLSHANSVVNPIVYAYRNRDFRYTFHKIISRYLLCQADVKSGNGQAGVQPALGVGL
Method in brief: as §1

T1 sequence (P29274 whole entry): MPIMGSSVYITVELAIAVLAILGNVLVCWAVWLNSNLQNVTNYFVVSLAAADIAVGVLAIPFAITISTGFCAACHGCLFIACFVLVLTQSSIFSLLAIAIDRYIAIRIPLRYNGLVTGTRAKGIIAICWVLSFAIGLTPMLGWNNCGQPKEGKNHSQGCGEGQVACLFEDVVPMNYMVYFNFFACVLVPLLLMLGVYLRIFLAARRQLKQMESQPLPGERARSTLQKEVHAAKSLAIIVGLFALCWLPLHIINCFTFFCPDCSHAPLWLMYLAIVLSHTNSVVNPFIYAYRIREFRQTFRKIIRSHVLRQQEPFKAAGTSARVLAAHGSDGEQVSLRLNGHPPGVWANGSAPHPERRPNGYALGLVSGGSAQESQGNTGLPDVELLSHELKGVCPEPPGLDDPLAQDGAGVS

SMILES: CC(C)CC1CN(C(=O)c2cc3c(cn2)c(-c2cnc4c(F)cc(F)cn24)nn3CC(F)(F)F)CCC1O (stereo not drawn) [Compound 143, [3-(6,8-Difluoro-imidazo[1,2-a]pyridin-3-yl)-1-(2,2,2-trifluoro-ethyl)-1H-pyrazolo[4,3-c]pyridin-6-yl]-(4-hydroxy-3-isobutyl-piperidin-1-yl)-methanone]
- pIC50 [1]: > 7.00
- pIC50 [2]: > 6.00

SMILES: O=C(c1cc2c(cn1)c(-c1cnc3c(F)cc(F)cn13)nn2CC(F)(F)F)N1CCC(C(F)F)CC1 [Compound 173, [3-(6,8-Difluoro-imidazo[1,2-a]pyridin-3-yl)-1-(2,2,2-trifluoro-ethyl)-1H-pyrazolo[4,3-c]pyridin-6-yl]-(4-difluoromethyl-piperidin-1-yl)-methanone]
- pIC50 [1]: > 7.00
- pIC50 [2]: > 6.00

SMILES: CCCn1nc(-c2cnc3ccc(C(N)=O)cn23)c2cnc(C(=O)N3CCCCCC3)cc21 [Compound 245, 3-[6-(Azepane-1-carbonyl)-1-propyl-1H-pyrazolo[4,3-c]pyridin-3-yl]-imidazo[1,2-a]pyridine-6-carboxylic acid amide]
- pIC50 [1]: > 7.00
- pIC50 [2]: > 6.00

SMILES: COCn1nc(-c2cnc3ccc(F)cn23)c2cnc(C(=O)N3CCCCCC3)cc21 [Compound 6, Azepan-1-yl-[3-(6-fluoro-imidazo[1,2-a]pyridin-3-yl)-1-methoxymethyl-1H-pyrazolo[4,3-c]pyridin-6-yl]-methanone]
- pIC50 [1]: > 7.00
- pIC50 [2]: > 6.00

SMILES: CS(=O)(=O)Cn1nc(-c2cnc3c(F)cc(F)cn23)c2cnc(C(=O)N3CCCOCC3)cc21 [Compound 15, [3-(6,8-Difluoro-imidazo[1,2-a]pyridin-3-yl)-1-methanesulfonylmethyl-1H-pyrazolo[4,3-c]pyridin-6-yl]-1,4-oxazepan-4-yl-methanone]
- pIC50 [1]: > 7.00
- pIC50 [2]: > 7.00

SMILES: O=C(c1cc2c(cn1)c(-c1cnc3c(F)cc(F)cn13)nn2CC(F)(F)F)N1CC2CCC(C1)O2 [Compound 83, [3-(6,8-Difluoro-imidazo[1,2-a]pyridin-3-yl)-1-(2,2,2-trifluoro-ethyl)-1H-pyrazolo[4,3c]pyridin-6-yl]-(8-oxa-3-aza-bicyclo[3.2.1]oct-3-yl)-methanone]
- pIC50 [1]: > 7.00
- pIC50 [2]: > 6.00

SMILES: O=C(c1cc2c(cn1)c(-c1cnc3ccc(F)cn13)nn2CCF)N1CCCCCC1 [Compound 4, Azepan-1-yl-[1-(2-fluoro-ethyl)-3-(6-fluoro-imidazo[1,2-a]pyridin-3-yl)-1H-pyrazolo[4,3-c]pyridin-6-yl]-methenone]
- pIC50 [1]: > 7.00
- pIC50 [2]: > 6.00

SMILES: O=C(c1cc2c(cn1)c(-c1cnc3c(F)cc(F)cn13)nn2CC(F)(F)F)N1CC2CCC(C1)C2O (stereo not drawn) [Compound 187, [3-(6,8-Difluoro-imidazo[1,2-a]pyridin-3-yl)-1-(2,2,2-trifluoro-ethyl)-1H-pyrazolo[4,3-c]pyridin-6-yl]-(8-endo-hydroxy-3-aza-bicyclo[3.2.1]oct-3-yl)-methanone]
- pIC50 ([1]; recombinant HEK293 cells expressing human A2A receptor, agonist NECA, cAMP HTRF, 15 min incubation): > 7.00
- pIC50 ([2]; recombinant HEK293 cells expressing human A2B receptor, agonist NECA, cAMP HTRF, 15 min incubation): > 6.00

SMILES: O=C(c1cc2c(cn1)c(-c1coc3ccccc13)nn2CC(F)F)N1C2CCC1CC(O)C2 (stereo not drawn) [Compound 220, [3-Benzofuran-3-yl-1-(2,2-difluoro-ethyl)-1H-pyrazolo[4,3-c]pyridin-6-yl]-(3-endo-hydroxy-8-exo-methyl-3-aza-bicyclo[3.2.1]oct-3-yl)-methanone]
- pIC50 [1]: > 7.00
- pIC50 [2]: > 6.00

SMILES: O=C(c1cc2c(cn1)c(-c1cnc3cnccn13)nn2CC(F)(F)F)N1CCCCCC1 [Compound 56, Azepan-1-yl-[3-imidazo[1,2-a]pyrazin-3-yl-1-(2,2,2-trifluoro-ethyl)-1H-pyrazolo[4,3-c]pyridin-6-yl]-methanone]
- pIC50 [1]: > 7.00
- pIC50 [2]: > 6.00

SMILES: NC(=O)c1ccc2ncc(-c3nn(CC(F)(F)F)c4cc(C(=O)N5CCCCCC5)ncc34)n2c1 [Compound 46, 3-[6-(Azepane-1-carbonyl)-1-(2,2,2-trifluoro-ethyl)-1H-pyrazolo[4,3-c]-pyridin-3-yl]-imidazo[1,2-a]pyridine-6-carboxylic acid amide]
- pIC50 [1]: > 7.00
- pIC50 [2]: > 7.00

SMILES: O=C(c1cc2c(cn1)c(-c1cnc3cc(F)c(Cl)cn13)nn2CC(F)(F)F)N1CCCCCC1 [Compound 74, Azepan-1-yl-[3-(6-chloro-7-fluoro-imidazo[1,2-a]pyridin-3-yl)-1-(2,2,2-trifluoro-ethyl)-1H-pyrazolo[4,3-c]pyridin-6-yl]-methanone]
- pIC50 [1]: > 7.00
- pIC50 [2]: > 6.00

SMILES: O=C(c1cc2c(cn1)c(-c1cnc3ncc(F)cn13)nn2CC(F)(F)F)N1CCCCCC1 [Compound 50, Azepan-1-yl-[3-(6-fluoro-imidazo[1,2-a]pyrimidin-3-yl)-1-(2,2,2-trifluoro-ethyl)-1H-pyrazolo[4,3-c]pyridin-6-yl]-methanone]
- pIC50 [1]: > 7.00
- pIC50 [2]: > 6.00

SMILES: NC(=O)c1ccc2ncc(-c3nn(CC(F)(F)F)c4cc(C(=O)N5CC6CCC(C5)O6)ncc34)n2c1 [Compound 247, 3-[6-(8-Oxa-3-aza-bicyclo[3.2.1]octane-3-carbonyl)-1-(2,2,2-trifluoro-ethyl)-1H-pyrazolo[4,3-c]pyridin-3-yl]-imidazo[1,2-a]pyridine-6-carboxylic acid amide]
- pIC50 [1]: > 7.00
- pIC50 [2]: > 6.00

Further lines, results first:

- pIC50 [1]: > 7.00
- pIC50 [2]: > 6.00
SMILES: N#CCn1nc(-c2coc3ccccc23)c2cnc(C(=O)N3CCCOCC3)cc21 [Compound 13, [3-Benzofuran-3-yl-6-(1,4-oxazepane-4-carbonyl)-pyrazolo[4,3-c]pyridin-1-yl]-acetonitrile]

- pIC50 [1]: > 7.00
- pIC50 [2]: > 6.00
SMILES: CS(=O)(=O)Cn1nc(-c2coc3ccccc23)c2cnc(C(=O)N3CCOCC(F)(F)C3)cc21 [Compound 29, (3-Benzofuran-3-yl-1-methanesulfonylmethyl-1H-pyrazolo[4,3-c]pyridin-6-yl)-(6,6-difluoro-1,4-oxazepan-4-yl)-methanone]

- pIC50 [1]: > 7.00
- pIC50 [2]: > 6.00
SMILES: O=C(c1cc2c(cn1)c(-c1cnc3c(F)cc(F)cn13)nn2CC(F)(F)F)N1CCC(F)CC1 [Compound 144, [3-(6,8-Difluoro-imidazo[1,2-a]pyridin-3-yl)-1-(2,2,2-trifluoro-ethyl)-1H-pyrazolo[4,3-c]pyridin-6-yl]-(4-fluoro-piperidin-1-yl)-methanone]

- pIC50 [1]: > 7.00
- pIC50 [2]: > 6.00
SMILES: O=C(c1cc2c(cn1)c(-c1cnc3c(F)cc(F)cn13)nn2CC(F)(F)F)N1CCC(O)C(F)(F)C1 (stereo not drawn) [Compound 203, (3,3-Difluoro-4-hydroxy-piperidin-1-yl)-[3-(6,8-difluoro-imidazo[1,2-a]pyridin-3-yl)-1-(2,2,2-trifluoro-ethyl)-1H-pyrazolo[4,3-c]pyridin-6-yl]-methanone]

- pIC50 [1]: > 7.00
- pIC50 [2]: > 6.00
SMILES: O=C(c1cc2c(cn1)c(-c1coc3ccccc13)nn2CC(F)(F)F)N1CCC(F)(F)CC1 [Compound 225, [3-(benzofuran-3-yl)-1-(2,2,2-trifluoroethyl)pyrazolo[4,3-c]pyridin-6-yl]-(4,4-difluoro-1-piperidyl)methanone]

- pIC50 [1]: > 7.00
- pIC50 [2]: > 7.00
SMILES: O=C(c1cc2c(cn1)c(-c1coc3ccccc13)nn2CC(F)(F)F)N1CC2CCC(C2)C1 [Compound 101, (3-Aza-bicyclo[3.2.1]oct-3-yl)-[3-benzofuran-3-yl-1-(2,2,2-trifluoro-ethyl)-1H-pyrazolo[4,3-c]pyridin-6-yl]-methanone]

- pIC50 [1]: > 7.00
- pIC50 [2]: > 6.00
SMILES: O=C(c1cc2c(cn1)c(-c1c[nH]c3ccccc13)nn2CC(F)(F)F)N1CC2CCC(C1)O2 [Compound 243, [3-(1H-indol-3-yl)-1-(2,2,2-trifluoroethyl)pyrazolo[4,3-c]pyridin-6-yl]-(8-oxa-3-azabicyclo[3.2.1]octan-3-yl)methanone]

- pIC50 [1]: > 7.00
- pIC50 [2]: > 6.00
SMILES: CC(C)N(C(=O)c1cc2c(cn1)c(-c1coc3ccccc13)nn2CC(F)(F)F)C(C)C [Compound 233, 3-(benzofuran-3-yl)-N,N-diisopropyl-1-(2,2,2-trifluoroethyl)pyrazolo[4,3-c]pyridine-6-carboxamide]

- pIC50 [1]: > 7.00
- pIC50 [2]: > 7.00
SMILES: O=C(c1cc2c(cn1)c(-c1coc3ccccc13)nn2CC(F)(F)F)N1CCCC(O)C1 (stereo not drawn) [Compound 227, [3-Benzofuran-3-yl-1-(2,2,2-trifluoro-ethyl)-1H-pyrazolo[4,3-c]pyridin-6-yl]-(3-hydroxy-piperidin-1-yl)-methanone]

- pIC50 [1]: > 7.00
- pIC50 [2]: > 7.00
SMILES: CS(=O)(=O)Cn1nc(-c2coc3ccccc23)c2cnc(C(=O)N3CC4CCC(C4)C3)cc21 [Compound 19, (3-Aza-bicyclo[3.2.1]oct-3-yl)-(3-benzofuran-3-yl-1-methanesulfonylmethyl-1H-pyrazolo[4,3-c]pyridin-6-yl)-methanone]

- pIC50 [1]: > 7.00
- pIC50 [2]: > 6.00
SMILES: CC1(C)CN(C(=O)c2cc3c(cn2)c(-c2cnc4c(F)cc(F)cn24)nn3CC(F)(F)F)CCCO1 [Compound 182, [3-(6,8-Difluoro-imidazo[1,2-a]pyridin-3-yl)-1-(2,2,2-trifluoro-ethyl)-1H-pyrazolo[4,3-c]pyridin-6-yl]-(2,2-dimethyl-1,4-oxazepan-4-yl)-methanone]

- pIC50 [1]: > 7.00
- pIC50 [2]: > 6.00
SMILES: O=C(c1cc2c(cn1)c(-c1coc3ccccc13)nn2CCF)N1CCCOCC1 [Compound 104, [3-Benzofuran-3-yl-1-(2-fluoro-ethyl)-1H-pyrazolo[4,3-c]pyridin-6-yl]-1,4-oxazepan-4-yl-methanone]

- pIC50 [1]: > 7.00
- pIC50 [2]: > 7.00
SMILES: O=C(c1cc2c(cn1)c(-c1coc3ccccc13)nn2CC(F)(F)F)N1CCOCC(F)(F)C1 [Compound 217]
